Read-outs that look alike come from different tables or passages of the source.
Assays:
[1] = system: sorbitol accumulation in the lens and the sciatic nerve; assay: Reduction or inhibition of sorbitol accumulation in the lens and the sciatic nerve of streptozotocin-induced diabetic rats; type: in vivo, rat; conditions: for Inhibition of sorbitol accumulation: vs no compound; for higher activities such as the inhibition of sorbitol accumulation, predominant diastereomer compared with the other isomer: predominant vs minor diastereomer; for superior effect on the inhibition of sorbitol accumulation in comparison with the control compound: vs control compound, Table 1
Protocol: The compounds listed in Tables 1 and 2 were tested for the ability to reduce or inhibit the accumulation of sorbitol in the lens and the sciatic nerve of streptozotocin-induced diabetic rats by the method of M. J. Peterson et al., [Metabolism, Vol. 28, No. 4, Supply. 1 (April), 456-461 (1979)]. […] In this experiment, the amount of sorbitol accumulation in the lens and the sciatic nerve of the rat was measured 28 hours after induction of diabetes.
The compounds listed in Tables 1 and 2 were orally administered at, the dose levels indicated in the Tables, 4, 8 and 25 hours after the administration of the streptozotocin.

[2] = system: cataract formation in galactosemic rats; assay: Effect on cataract formation in galactosemic rats (visual observation of lenticular opacities); type: in vivo, male Sprague-Dawley rats; conditions: for lenticular opacities, number with grade + / lenticular opacities, number with grade - (no opacity) / lenticular opacities, number with grade ++ / lenticular opacities, number with grade +++: 16th day, total 6
Protocol: (§1) On the 16th day of the study (24 hours after the final administration) lenticular opacities were observed, and then the lens and the sciatic nerve were enucleated to determine the content of carbohydrates.
The abscissa in FIG. 1 indicates the number of days from the beginning of feeding of a 30% galactose diet, and the ordinate indicates the percentages of appearance of the cataract.
In Table 3, a symbol - represents the case of no opacity and +, ++, +++ show the grade of the opacity, respectively.

[3] = system: galactitol accumulation in the lens and the sciatic nerve; assay: Inhibition of galactitol accumulation in the lens and the sciatic nerve of galactosemic rats; type: in vivo, male Sprague-Dawley rats; conditions: for Inhibition of galactitol accumulation: 16th day
Protocol: as §1

aldose reductase = molecular target: T1, aldose reductase (Bos taurus, UniProt P16116); assay: Inhibition effect on aldose reductase; type: biochemical; conditions: for activity of the d-type relative to the dl-type product: aldose reductase
T1 construct: Aldose reductase was prepared by the method of Hayman et al; from tissue
Protocol: Aldose reductase was prepared by the method of Hayman et al. [S. Hayman and K.K. Kinoshita; Journal of Biological Chemistry, Vol. 240, p.

[4] = lens, 5 mg/kg oral, 4, 8 and 25 h after streptozotocin
[5] = sciatic nerve, 5 mg/kg oral, 4, 8 and 25 h after streptozotocin
[6] = lens, 10 mg/kg oral, 4, 8 and 25 h after streptozotocin
[7] = sciatic nerve, 10 mg/kg oral, 4, 8 and 25 h after streptozotocin
[8] = lens, 0.2 mg/kg oral, 4, 8 and 25 h after streptozotocin
[9] = lens, 1 mg/kg oral, 4, 8 and 25 h after streptozotocin
[10] = sciatic nerve, 0.2 mg/kg oral, 4, 8 and 25 h after streptozotocin
[11] = sciatic nerve, 1 mg/kg oral, 4, 8 and 25 h after streptozotocin
[12] = right, 25 mg/kg oral once a day
[13] = sciatic nerve, 1 mg/kg oral once a day
[14] = sciatic nerve, 5 mg/kg oral once a day
[15] = sciatic nerve, 25 mg/kg oral once a day
[16] = Table 5, read-out: ID50 (concentration of 50% inhibition on aldose reductase)
[17] = similar manner as in Experiment 3, d-type vs dl-type product, read-out: ID50, inhibition effect on the Aldose reductase

| SMILES | Inhibition on aldose reductase (aldose reductase; 3 × 10^-6 (M)) [%] | Inhibition on aldose reductase (aldose reductase; 3 × 10^-7 (M)) [%] | Inhibition on aldose reductase (aldose reductase; 10^-6 (M)) [%] | Inhibition on aldose reductase (aldose reductase; 10^-7 (M)) [%] | IC50 (aldose reductase; [16]) [nM] | IC50 (aldose reductase; [17]) [nM] | Inhibition of sorbitol accumulation [1, 4] [%] | Inhibition of sorbitol accumulation [1, 5] [%] | Inhibition of sorbitol accumulation [1, 6] [%] | Inhibition of sorbitol accumulation [1, 7] [%] | Inhibition of sorbitol accumulation [1, 8] [%] | Inhibition of sorbitol accumulation [1, 9] [%] | Inhibition of sorbitol accumulation [1, 10] [%] | Inhibition of sorbitol accumulation [1, 11] [%] | other results |
| --- | --- | --- | --- | --- | --- | --- | --- | --- | --- | --- | --- | --- | --- | --- | --- |
| CC1CC2(NC(=O)NC2=O)c2ccccc2O1 (stereo not drawn) [2-Methyl-spiro-[chroman-4,4'-imidazolidine]-2',5'-dione] |  |  |  |  |  |  | 54 | 77 |  |  |  |  |  |  |  |
| CC1Oc2ccc(Cl)cc2C12NC(=O)NC2=O (stereo not drawn) [5-Chloro-2-methyl-spiro-[benzofuran-3,4'-imidazolidine]-2',5'-dione] |  |  |  |  |  |  |  |  | 95 | 45 |  |  |  |  |  |
| CC1CC2(NC(=O)NC2=O)c2cc(Cl)c(Cl)cc2O1 (stereo not drawn) [6,7-Dichloro-2-methyl-spiro-[chroman-4,4'-imidazolidine]-2',5'-dione] |  |  |  |  |  |  | 88 |  |  |  |  |  |  |  |  |
| CC1(C)CC2(NC(=O)NC2=O)c2cc(Cl)cc(Cl)c2O1 (stereo not drawn) [6,8-Dichloro-2,2-dimethyl-spiro-[chroman-4,4'-imidazolidine]-2',5'-dione] |  |  |  |  |  |  |  |  | 87 | 55 |  |  |  |  |  |
| CC1(C)CC2(NC(=O)NC2=O)c2cc(Br)ccc2O1 (stereo not drawn) [6-Bromo-2,2-dimethyl-spiro-[chroman-4,4'-imidazolidine]-2',5'-dione] |  |  |  |  |  |  |  |  | 88 | 100 |  |  |  |  |  |
| CC1CC2(NC(=O)NC2=O)c2ccc(Cl)cc2O1 (stereo not drawn) [7-Chloro-2-methyl-spiro-[chroman-4,4'-imidazolidine]-2',5'-dione] |  |  |  |  |  |  | 83 |  |  |  |  |  |  |  |  |

More lines, main results first:

| Inhibition on aldose reductase (aldose reductase; 3 × 10^-6 (M)) [%] | Inhibition on aldose reductase (aldose reductase; 3 × 10^-7 (M)) [%] | Inhibition on aldose reductase (aldose reductase; 10^-6 (M)) [%] | Inhibition on aldose reductase (aldose reductase; 10^-7 (M)) [%] | IC50 (aldose reductase; [16]) [nM] | IC50 (aldose reductase; [17]) [nM] | SMILES | Inhibition of sorbitol accumulation [1, 4] [%] | Inhibition of sorbitol accumulation [1, 5] [%] | Inhibition of sorbitol accumulation [1, 6] [%] | Inhibition of sorbitol accumulation [1, 7] [%] | Inhibition of sorbitol accumulation [1, 8] [%] | Inhibition of sorbitol accumulation [1, 9] [%] | Inhibition of sorbitol accumulation [1, 10] [%] | Inhibition of sorbitol accumulation [1, 11] [%] | other results |
| --- | --- | --- | --- | --- | --- | --- | --- | --- | --- | --- | --- | --- | --- | --- | --- |
| 79 | 8 | 47 | -4 | 1000 |  | CC1(C)CC2(NC(=O)NC2=O)c2cc(Cl)ccc2O1 (stereo not drawn) [6-Chloro-2,2-dimethyl-spiro-[chroman-4,4'-imidazolidine]-2',5'-dione] | 78 | 95 | 89 | 100 | 11 | 60 | 47 | 86 | lenticular opacities on the 16th day (in words) ([2]; 5 mg/kg oral once a day): lenticular opacities were not observed; lenticular opacities on the 16th day (in words) ([2]; 25 mg/kg oral once a day): lenticular opacities were not observed; inhibition effect on cataract formation (in words) ([2]; galactosemic rats, FIG. 1 and Table 3): superior to the control compound; lenticular opacities, number with grade + ([2]; left, 1 mg/kg oral once a day): 1; lenticular opacities, number with grade - (no opacity) ([2]; left, 1 mg/kg oral once a day): 5; lenticular opacities, number with grade - (no opacity) ([2]; left, 5 mg/kg oral once a day): 6; lenticular opacities, number with grade - (no opacity) ([2]; left, 25 mg/kg oral once a day): 6; lenticular opacities, number with grade + ([2]; right, 1 mg/kg oral once a day): 1; lenticular opacities, number with grade - (no opacity) ([2]; right, 1 mg/kg oral once a day): 5; lenticular opacities, number with grade - (no opacity) ([2]; right, 5 mg/kg oral once a day): 6; lenticular opacities, number with grade - (no opacity) [2, 12]: 6; Inhibition of galactitol accumulation ([3]; lens, 1 mg/kg oral once a day): 2%; Inhibition of galactitol accumulation ([3]; lens, 5 mg/kg oral once a day): 19%; Inhibition of galactitol accumulation ([3]; lens, 25 mg/kg oral once a day): 46%; Inhibition of galactitol accumulation [3, 13]: 5%; Inhibition of galactitol accumulation [3, 14]: 50%; Inhibition of galactitol accumulation [3, 15]: 74%; inhibitory effect on galactitol accumulation in the sciatic nerve relative to the control compound ([3]; sciatic nerve, vs control compound): five times or more; inhibition of galactitol accumulation relative to the control compound ([3]; vs control compound): remarkably superior to the control compound |
| 92 | 31 | 84 | 0 | 400 | 77 | CC1CC2(NC(=O)NC2=O)c2cc(Cl)ccc2O1 (stereo not drawn) [6-Chloro-2-methyl-spiro-[chroman-4,4'-imidazolidine]-2',5'-dione] |  |  | 97 | 82 |  |  |  |  | higher activities such as the inhibition of sorbitol accumulation, predominant diastereomer compared with the other isomer [1]: 3-5 times; superior effect on the inhibition of sorbitol accumulation in comparison with the control compound [1]: 2-10 times |
| 70 | 12 | 40 | 0 | 2000 |  | CC1(C)CC2(NC(=O)NC2=O)c2cc(F)ccc2O1 (stereo not drawn) [6-Fluoro-2,2-dimethyl-spiro-[chroman-4,4'-imidazolidine]-2',5'-dione] | 72 | 81 | 81 | 93 | 35 | 58 | 22 | 33 |  |
| 91 | 31 | 77 | 7 | 500 | 180 | CC1CC2(NC(=O)NC2=O)c2cc(F)ccc2O1 (stereo not drawn) [6-Fluoro-2-methyl-spiro-[chroman-4,4'-imidazolidine]-2',5'-dione] | 93 | 100 | 96 | 100 | 43 | 80 | 39 | 100 | higher activities such as the inhibition of sorbitol accumulation, predominant diastereomer compared with the other isomer [1]: 3-5 times; superior effect on the inhibition of sorbitol accumulation in comparison with the control compound [1]: 2-10 times |
| 78 | 17 | 53 | 2 |  |  | O=C1NC(=O)C2(CCOc3ccc(F)cc32)N1 (stereo not drawn) [6-fluoro-spiro-[chroman-4,4'-imidazolidine]-2',5'-dione, reference compound] | 62 | 67 | 77 | 88 | -29 | 41 | 26 | 15 | lenticular opacities on the 16th day (in words) ([2]; 25 mg/kg oral once a day): lenticular opacities were not observed; lenticular opacities, number with grade ++ ([2]; left, 1 mg/kg oral once a day): 3; lenticular opacities, number with grade +++ ([2]; left, 1 mg/kg oral once a day): 3; lenticular opacities, number with grade + ([2]; left, 5 mg/kg oral once a day): 4; lenticular opacities, number with grade - (no opacity) ([2]; left, 5 mg/kg oral once a day): 2; lenticular opacities, number with grade - (no opacity) ([2]; left, 25 mg/kg oral once a day): 6; lenticular opacities, number with grade ++ ([2]; right, 1 mg/kg oral once a day): 2; lenticular opacities, number with grade +++ ([2]; right, 1 mg/kg oral once a day): 4; lenticular opacities, number with grade + ([2]; right, 5 mg/kg oral once a day): 4; lenticular opacities, number with grade - (no opacity) ([2]; right, 5 mg/kg oral once a day): 2; lenticular opacities, number with grade - (no opacity) [2, 12]: 6; Inhibition of galactitol accumulation ([3]; lens, 1 mg/kg oral once a day): -11%; Inhibition of galactitol accumulation ([3]; lens, 5 mg/kg oral once a day): 5%; Inhibition of galactitol accumulation ([3]; lens, 25 mg/kg oral once a day): 22%; Inhibition of galactitol accumulation [3, 13]: 1%; Inhibition of galactitol accumulation [3, 14]: -12%; Inhibition of galactitol accumulation [3, 15]: 17% |
|  |  |  |  |  | 43 | CC1CC2(NC(=O)NC2=O)c2cc(Cl)ccc2O1 (stereo not drawn) [d-6-chloro-2-methyl-spiro-[chromane-4,4'-imidazolidine]-2',5'-dione] |  |  |  |  |  |  |  |  | activity of the d-type relative to the dl-type product (aldose reductase; d-type vs dl-type product): about twice |
|  |  |  |  |  | 93 | CC1CC2(NC(=O)NC2=O)c2cc(F)ccc2O1 (stereo not drawn) [d-6-fluoro-2-methyl-spiro-[chromane-4,4'-imidazolidine]-2',5'-dione] |  |  |  |  |  |  |  |  | activity of the d-type relative to the dl-type product (aldose reductase; d-type vs dl-type product): about twice |

From patent publication US4874869A, “Hydantoin derivatives and medicines containing the same” (Eisai Co., Ltd., priority 1980, dated 1989)
